According to PMC11873939, “Target Identification with Live-Cell Photoaffinity Labeling and Mechanism of Action Elucidation of ARN23765, a Highly Potent CFTR Corrector” (Journal of Medicinal Chemistry, 2025):

Legend:
F508del-CFTR [1] = target: T1, F508del-CFTR (Homo sapiens, UniProt P13569, DEL508-508); experiment: HS-YFP functional assay in CFBE41o- cells stably overexpressing F508del-CFTR; format: cell-based; conditions: 24 h treatment; for EC50 / HS-YFP assay in CFBE41o- cells EC50: 3 nM-10 µM range; for HS-YFP assay in CFBE41o- cells Emax: values normalized to DMSO-incubated cells
T1 construct: expressed in transfected cells
T1 sequence (P13569 with tags, fused parts or gaps DEL508-508): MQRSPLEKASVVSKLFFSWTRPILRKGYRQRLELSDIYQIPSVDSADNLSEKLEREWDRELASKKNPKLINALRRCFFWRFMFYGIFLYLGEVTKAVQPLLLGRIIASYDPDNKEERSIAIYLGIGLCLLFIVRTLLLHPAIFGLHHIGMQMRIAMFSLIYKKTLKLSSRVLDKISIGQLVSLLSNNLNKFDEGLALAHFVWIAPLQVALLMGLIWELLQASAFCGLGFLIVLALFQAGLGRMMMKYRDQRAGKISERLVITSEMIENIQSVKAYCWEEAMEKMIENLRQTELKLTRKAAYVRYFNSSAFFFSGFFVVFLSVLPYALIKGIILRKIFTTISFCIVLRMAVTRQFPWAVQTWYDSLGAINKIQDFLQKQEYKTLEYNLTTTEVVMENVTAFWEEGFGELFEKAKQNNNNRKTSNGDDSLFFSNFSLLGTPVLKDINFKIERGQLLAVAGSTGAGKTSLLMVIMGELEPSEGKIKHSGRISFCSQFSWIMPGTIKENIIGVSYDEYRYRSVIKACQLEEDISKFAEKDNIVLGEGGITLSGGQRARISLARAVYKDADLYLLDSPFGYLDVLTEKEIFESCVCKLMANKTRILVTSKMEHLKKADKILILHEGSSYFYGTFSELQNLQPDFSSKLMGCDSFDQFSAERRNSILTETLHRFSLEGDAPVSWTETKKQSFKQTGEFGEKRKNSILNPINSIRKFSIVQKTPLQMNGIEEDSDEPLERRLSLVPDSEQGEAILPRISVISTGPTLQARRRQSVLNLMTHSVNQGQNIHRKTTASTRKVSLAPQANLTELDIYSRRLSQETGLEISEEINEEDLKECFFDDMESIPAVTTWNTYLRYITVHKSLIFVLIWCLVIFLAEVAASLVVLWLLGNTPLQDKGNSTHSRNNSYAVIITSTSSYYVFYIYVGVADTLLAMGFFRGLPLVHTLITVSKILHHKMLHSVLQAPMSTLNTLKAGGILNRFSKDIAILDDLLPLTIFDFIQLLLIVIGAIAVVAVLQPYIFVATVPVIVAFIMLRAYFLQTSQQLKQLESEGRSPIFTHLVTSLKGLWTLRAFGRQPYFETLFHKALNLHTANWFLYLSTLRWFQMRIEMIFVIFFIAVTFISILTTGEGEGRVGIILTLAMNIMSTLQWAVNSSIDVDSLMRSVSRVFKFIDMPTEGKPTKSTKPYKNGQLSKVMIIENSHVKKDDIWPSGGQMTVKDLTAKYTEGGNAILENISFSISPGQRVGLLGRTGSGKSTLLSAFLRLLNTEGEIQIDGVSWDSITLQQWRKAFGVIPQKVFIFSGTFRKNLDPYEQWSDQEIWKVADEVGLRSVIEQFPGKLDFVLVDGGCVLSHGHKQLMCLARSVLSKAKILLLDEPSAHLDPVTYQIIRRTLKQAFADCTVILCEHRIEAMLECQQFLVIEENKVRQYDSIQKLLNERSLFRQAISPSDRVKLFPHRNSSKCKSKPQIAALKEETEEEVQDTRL
Description: These analogues were tested in the functional assay on the human bronchial epithelia-derived cell line, CFBE41o-, which stably overexpresses F508del-CFTR and the halide-sensitive yellow fluorescent protein (HS-YFP).[31] […]
HS-YFP-based assay for CFTR activity
Twenty-four hours after seeding on 96-well plates, CFBE41o- cells stably over-expressing F508del-CFTR and the HS-YFP were treated with test compounds at different concentrations in the 3 nM-10 µM range.1 Cells treated with vehicle alone (DMSO) and with ARN23765, respectively, served as negative and positive controls. The following day, cells were washed with PBS containing (in mM) 137 NaCl, 2.7 KCl, 8.1 Na2HPO4, 1.5 KH2PO4, 1.0 CaCl2, and 0.5 MgCl2. Cells were then incubated for 25 min with […] of PBS plus forskolin (20 µM) and VX-770 (1 µM) to maximally stimulate F508del-CFTR. Cells were then transferred to a microplate reader (FluoStar Galaxy; BMG Labtech, Offenburg, Germany) for CFTR activity determination. The plate reader was equipped with high-quality excitation (HQ500/20X: 500 ± 10 nm) and emission (HQ535/30M: 535 ± 15 nm) filters for YFP (Chroma Technology). Each assay comprised a continuous 14 s fluorescence reading, 2 s before and 12 s after injection of […] of an iodide-containing solution (PBS with Cl- replaced by I-; final I- concentration […]). Data were normalized to the initial background-subtracted fluorescence. To determine I- influx rate, the final 11 s of the data for each well were fitted with an exponential function to extrapolate initial slope (dF/dt). Reproducibility of results was confirmed by performing three independent experiments. […]

wt-CFTR = target: T2, wt-CFTR (Homo sapiens, UniProt P13569); experiment: Live-cell photoaffinity labeling, streptavidin pull-down and CFTR Western blot; format: binding; conditions: wt-CFTR CFBE41o- cells, probe 1 μM; for CFTR in streptavidin pull-down (WB) after PAL: 2 h, UV 365 nm
T2 construct: expressed in transfected cells
T2 sequence (P13569 whole entry): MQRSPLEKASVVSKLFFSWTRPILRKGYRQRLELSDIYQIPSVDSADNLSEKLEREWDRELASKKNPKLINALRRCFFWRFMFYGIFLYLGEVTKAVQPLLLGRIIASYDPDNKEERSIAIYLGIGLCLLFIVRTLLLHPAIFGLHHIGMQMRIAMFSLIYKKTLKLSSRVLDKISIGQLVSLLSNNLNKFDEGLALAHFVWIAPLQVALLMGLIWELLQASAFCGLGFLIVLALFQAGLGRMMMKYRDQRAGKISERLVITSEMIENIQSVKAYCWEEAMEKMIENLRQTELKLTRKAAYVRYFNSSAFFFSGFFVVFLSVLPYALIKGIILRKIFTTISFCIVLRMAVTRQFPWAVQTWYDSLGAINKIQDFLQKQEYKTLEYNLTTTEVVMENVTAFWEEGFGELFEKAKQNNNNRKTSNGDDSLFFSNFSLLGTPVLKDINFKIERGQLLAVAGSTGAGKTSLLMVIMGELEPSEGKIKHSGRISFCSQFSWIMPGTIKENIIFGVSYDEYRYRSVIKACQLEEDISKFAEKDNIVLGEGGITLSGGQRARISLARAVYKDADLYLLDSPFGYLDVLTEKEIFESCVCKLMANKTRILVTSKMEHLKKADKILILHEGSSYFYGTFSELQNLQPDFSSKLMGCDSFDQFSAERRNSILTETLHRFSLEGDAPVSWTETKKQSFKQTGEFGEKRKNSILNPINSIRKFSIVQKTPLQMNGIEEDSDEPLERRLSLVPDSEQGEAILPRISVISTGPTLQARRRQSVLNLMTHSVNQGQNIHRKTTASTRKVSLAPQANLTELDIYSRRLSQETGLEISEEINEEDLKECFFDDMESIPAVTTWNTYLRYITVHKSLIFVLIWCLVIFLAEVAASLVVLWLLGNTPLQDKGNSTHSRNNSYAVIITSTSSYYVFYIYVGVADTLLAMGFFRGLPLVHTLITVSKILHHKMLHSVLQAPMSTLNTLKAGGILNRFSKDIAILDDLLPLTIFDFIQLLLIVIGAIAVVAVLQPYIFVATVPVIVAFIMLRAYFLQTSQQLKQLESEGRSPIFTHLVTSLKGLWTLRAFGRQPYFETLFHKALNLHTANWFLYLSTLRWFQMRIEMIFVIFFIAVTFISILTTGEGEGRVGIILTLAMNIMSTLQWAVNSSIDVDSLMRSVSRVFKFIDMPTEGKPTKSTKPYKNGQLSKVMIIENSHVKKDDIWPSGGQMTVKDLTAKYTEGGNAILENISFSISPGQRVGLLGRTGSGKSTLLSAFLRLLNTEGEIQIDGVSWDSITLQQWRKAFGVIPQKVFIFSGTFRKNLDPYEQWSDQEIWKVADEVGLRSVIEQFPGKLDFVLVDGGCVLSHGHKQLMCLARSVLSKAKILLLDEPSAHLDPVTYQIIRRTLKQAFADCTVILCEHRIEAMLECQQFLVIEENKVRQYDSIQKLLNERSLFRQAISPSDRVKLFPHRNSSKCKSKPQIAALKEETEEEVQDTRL
Description: (§1) Wt-CFTR or F508del-CFTR CFBE41o- cells were plated at 2–2.5 × 10^6 cells/plate in 6 cm diameter dishes. The day after, sodium butyrate (5–2.5 mM) was added for 24 h; next, the medium was exchanged with fresh one supplemented with DMSO (0.25%) (276855, Sigma-Aldrich) or probe (1 μM). For competition experiments, a 25-fold excess of ARN23765 (25 μM) was added 30 min before probe’s addition. For the analysis of “corrected” F508del-CFTR, F508del-CFTR CFBE41o- cells were kept at 27 °C for 24 h before adding the probes. Probes were incubated with cells for 2 h, then the medium was removed, and plates were washed twice with phosphate buffer saline (PBS). Cells were placed on ice and irradiated for 5 min at a wavelength of 365 nm using a 100-W UV-lamp (95–0127–02 model B100-AP, Analytik Jena). Cells were harvested with trypsin (T4299, Sigma-Aldrich), washed with PBS (D8537, Sigma-Aldrich), and pellets were stored at −80 °C until used, centrifuged at 300 × g and washed twice with PBS (D8537, Sigma-Aldrich). Pellets from in-cell photoaffinity labeling with alkyne-probes (PAP_1 and PAP_2) were lysed in PBS plus protease inhibitor cocktail (78429, Thermo Scientific) by sonication. The suspension was centrifuged at 800 × g for 20 min at 4 °C to discard nuclei and cell debris. The total extracted proteins were quantified with the bicinchoninic acid (BCA) protein assay (23225, Thermo Scientific) and subjected to CuAAC before proceeding with pull-down. Pellets from in-cell photoaffinity labeling with desthio-biotinylated (DS-biot) probes (PAP_1 DS-biot, PAP_2 DS-biot, PAP_N1 DS-biot, PAP_N2 DS-biot) were lysed with a modified RIPA buffer [50 mM tris-HCl pH 8, 150 mM NaCl, 0.5% Triton-X100, 0.2% SDS, 1 mM ethylenediaminetetraacetic acid (EDTA)] supplemented with protease inhibitor cocktail and centrifuged at 10.000× g for 10 min. The protein content in the supernatant was quantified by BCA protein assay. Protein lysate (200 μg) was diluted to 800 μL and the Triton-X100 percentage was reduced to 0.2% before proceeding to pull-down.
Copper-catalyzed azide–alkyne cycloaddition (CuAAC) was performed according to a previously described protocol.[62] Briefly, to the protein preparation (250 μL at 1 mg/mL protein concentration) the following reagents were added at the indicated final concentrations: 100 μM 5/6-TAMRA-azide-desthiobiotin (CLK-1110–5, Jena Bioscience), 1.0 mM tris-(2-carbossietil)phosphine (TCEP, C4706, Sigma-Aldrich), 100 μM tris-[(1-benzyl-1H-1,2,3-triazol-4-yl)methyl]amine (TBTA, 678937, Sigma-Aldrich), 1.0 mM CuSO4.5H2O (Sigma), and 0.8% sodium dodecyl sulfate (SDS). TBTA was first dissolved in DMSO at 83.5 mM and then diluted with four volumes of tert-butanol. The reaction was mixed by vortexing and incubated for 1 h at 25 °C. After the reaction time, proteins were precipitated with 5 volumes of cold acetone overnight at −20 °C. Samples were centrifuged for 20 min at 20.000× g, and the pellets were washed with methanol, air-dried, and finally resuspended with 600 μL of 1% SDS. SDS concentration was then diluted to 0.2% with PBS before proceeding to pull-down.
(§2) High capacity streptavidin agarose (20359, Thermo Scientific) (25 μL) was added to PAP-labeled cell extracts for 1 h at room temperature under gentle rotation. The streptavidin beads were collected by centrifugation and washed four times with lysis buffer. Resin-bound proteins were eluted with 45 μL of 5 mM biotin (B4501, Sigma-Aldrich) for 30 min at room temperature and analyzed with Western blot for CFTR expression. Input samples (4 and 8 μg for wt-CFTR and F508del-CFTR CFBE41o-, respectively) were collected immediately before incubation with streptavidin resin. Input and pulled-down samples were analyzed with WB as described in the supplementary methods.

F508del-CFTR [2] = target: T1, F508del-CFTR; experiment: as above; format: binding; conditions: for CFTR in streptavidin pull-down (WB) after PAL: F508del-CFTR CFBE41o- cells, probe 1 μM, 2 h, UV 365 nm; for CFTR forms in streptavidin pull-down (WB) after PAL: F508del-CFTR CFBE41o- cells kept at 27 °C for 24 h (low-temperature rescue) before PAL
Description: as §1, §2

CFTR = experiment: Live-cell photoaffinity labeling in CFTR–/– CFBE41o- cells (control); format: binding, human; conditions: probe 1 μM, 2 h

Row | SMILES | EC50 (F508del-CFTR [1]) | HS-YFP assay in CFBE41o- cells Emax (F508del-CFTR [1]) | CFTR in pull-down (WB) after PAL with alkyne probe and CuAAC DS-biot tagging (wt-CFTR; UV irradiation, CuAAC) | HS-YFP assay in CFBE41o- cells EC50 (F508del-CFTR [1]) | CFTR in streptavidin pull-down (WB) after PAL (F508del-CFTR [2]) | CFTR in streptavidin pull-down (WB) after PAL (wt-CFTR) | CFTR in streptavidin pull-down (WB) after PAL (CFTR) | CFTR forms in streptavidin pull-down (WB) after PAL (F508del-CFTR [2]) | Effect in CFTR rescuing (HS-YFP assay, Figure S2) (F508del-CFTR [1]; vs DMSO)
1 | C#Cc1ccc(O[C@H]2CCCc3c(C(F)(F)F)nn(-c4cccc(C(=O)N(C)c5ccc(C6(C(F)(F)F)N=N6)cc5)c4)c32)cc1 [PAP_2, (S)-3-(7-(4-Ethynylphenoxy)-3-(trifluoromethyl)-4,5,6,7-tetrahydro-1H-indazol-1-yl)-N-methyl-N-(4-(3-(trifluoromethyl)-3H-diazirin-3-yl)phenyl)benzamide] | 385 nM | 2.1 | barely detect a band corresponding to CFTR |  |  |  |  |  | 
2 | C[C@H]1NC(=O)N[C@H]1CCCCCC(=O)NCCOCCOCCOCCn1cc(-c2ccc(O[C@H]3CCCc4c(C(F)(F)F)nn(-c5cccc(C(=O)Nc6ccc(C7(C(F)(F)F)N=N7)cc6)c5)c43)cc2)nn1 [PAP_N2 DS-biot, 3-((S)-7-(4-(1-(18-((4S,5R)-5-Methyl-2-oxoimidazolidin-4-yl)-13-oxo-3,6,9-trioxa-12-azaoctadecyl)-1H-1,2,3-triazol-4-yl)phenoxy)-3-(trifluoromethyl)-4,5,6,7-tetrahydro-1H-indazol-1-yl)-N-(4-(3-(trifluoromethyl)-3H-diazirin-3-yl)phenyl)benzamide] |  |  |  | devoid of activity | not pulled down | not pulled down |  |  | 
3 | C[C@H]1NC(=O)N[C@H]1CCCCCC(=O)NCCOCCOCCOCCn1cc(CCC2(CCNC(=O)c3ccc(O[C@H]4CCCc5c(C(F)(F)F)nn(-c6cccc(C(=O)N(C)c7ccc8c(c7)OC(F)(F)O8)c6)c54)cc3)N=N2)nn1 [PAP_1 DS-biot, N-(2,2-Difluorobenzo[d][1,3]dioxol-5-yl)-N-methyl-3-((S)-7-(4-((2-(3-(2-(1-(18-((4S,5R)-5-methyl-2-oxoimidazolidin-4-yl)-13-oxo-3,6,9-trioxa-12-azaoctadecyl)-1H-1,2,3-triazol-4-yl)ethyl)-3H-diazirin-3-yl)ethyl)carbamoyl)phenoxy)-3-(trifluoromethyl)-4,5,6,7-tetrahydro-1H-indazol-1-yl)benzamide] | 122 nM | 2.7 |  |  | consistently captured | consistently captured | did not detect CFTR | bound and pulled down both F508del-CFTR immature (band B) and mature (band C) protein | 
4 | CN(C(=O)c1cccc(-n2nc(C(F)(F)F)c3c2[C@@H](Oc2ccc(C(=O)O)cc2)CCC3)c1)c1ccc(C2(C(F)(F)F)N=N2)cc1 [Compound 2, (S)-4-((1-(3-(Methyl(4-(3-(trifluoromethyl)-3H-diazirin-3-yl)phenyl)carbamoyl)phenyl)-3-(trifluoromethyl)-4,5,6,7-tetrahydro-1H-indazol-7-yl)oxy)benzoic Acid] | 24 nM | 1.2 |  |  |  |  |  |  | no significant effect
5 | C[C@H]1NC(=O)N[C@H]1CCCCCC(=O)NCCOCCOCCOCCn1cc(CCC2(CCNC(=O)c3ccc(O[C@H]4CCCc5c(C(F)(F)F)nn(-c6cccc(C(=O)Nc7ccc8c(c7)OC(F)(F)O8)c6)c54)cc3)N=N2)nn1 [PAP_N1 DS-biot, N-(2,2-Difluorobenzo[d][1,3]dioxol-5-yl)-3-((S)-7-(4-((2-(3-(2-(1-(18-((4S,5R)-5-methyl-2-oxoimidazolidin-4-yl)-13-oxo-3,6,9-trioxa-12-azaoctadecyl)-1H-1,2,3-triazol-4-yl)ethyl)-3H-diazirin-3-yl)ethyl)carbamoyl)phenoxy)-3-(trifluoromethyl)-4,5,6,7-tetrahydro-1H-indazol-1-yl)benzamide] |  |  |  | devoid of activity | not pulled down | not pulled down |  |  | 
6 | C#Cc1ccc(O[C@H]2CCCc3c(C(F)(F)F)nn(-c4cccc(C(=O)N(C)c5ccc6c(c5)OC(F)(F)O6)c4)c32)cc1 [Compound 1, (S)-N-(2,2-Difluorobenzo[d][1,3]dioxol-5-yl)-3-(7-(4-ethynylphenoxy)-3-(trifluoromethyl)-4,5,6,7-tetrahydro-1H-indazol-1-yl)-N-methylbenzamide] | 3.3 nM | 3 |  |  |  |  |  |  | 
7 | C[C@H]1NC(=O)N[C@H]1CCCCCC(=O)NCCOCCOCCOCCn1cc(-c2ccc(O[C@H]3CCCc4c(C(F)(F)F)nn(-c5cccc(C(=O)N(C)c6ccc(C7(C(F)(F)F)N=N7)cc6)c5)c43)cc2)nn1 [PAP_2 DS-biot, N-Methyl-3-((S)-7-(4-(1-(18-((4S,5R)-5-methyl-2-oxoimidazolidin-4-yl)-13-oxo-3,6,9-trioxa-12-azaoctadecyl)-1H-1,2,3-triazol-4-yl)phenoxy)-3-(trifluoromethyl)-4,5,6,7-tetrahydro-1H-indazol-1-yl)-N-(4-(3-(trifluoromethyl)-3H-diazirin-3-yl)phenyl)benzamide] | 480 nM | 1.4 |  |  | consistently captured | consistently captured | did not detect CFTR | bound and pulled down both F508del-CFTR immature (band B) and mature (band C) protein | 
8 | C#CCCC1(CCNC(=O)c2ccc(O[C@H]3CCCc4c(C(F)(F)F)nn(-c5cccc(C(=O)N(C)c6ccc7c(c6)OC(F)(F)O7)c5)c43)cc2)N=N1 [PAP_1, (S)-3-(7-(4-((2-(3-(But-3-yn-1-yl)-3H-diazirin-3-yl)ethyl)carbamoyl)phenoxy)-3-(trifluoromethyl)-4,5,6,7-tetrahydro-1H-indazol-1-yl)-N-(2,2-difluorobenzo[d][1,3]dioxol-5-yl)-N-methylbenzamide] | < 3 nM | 2.8 |  |  |  |  |  |  | 
